Values quoted from earlier work as cited in paper PMC6594753, “Cystic fibrosis drug ivacaftor stimulates CFTR channels at picomolar concentrations” (eLife, 2019).

System: CFTR
Parameters: method as in Yeh et al., 2019
Conditions: ref Yeh et al., 2019; cited from earlier work

## CC1(C)Cc2c(sc(NC(=O)c3ccn[nH]3)c2C(N)=O)C(C)(C)O1 [GLPG-1837]
  Hill coefficients of dose response curves for activation: close to unity
